Positions count from the first letter of the chain named. Where two headings read alike, the source gives them in different places.
Tests used:
Assay type in all cases: binding
CePOFUT1 [1] = target: T1, CePOFUT1 (Caenorhabditis elegans, UniProt Q18014); test: thermal shift assay (ANS fluorescence)
T1 construct: gene pfut-1; codon-optimized synthetic gene in pPICZalphaA with KEX2 cleavage signal, secreted from Pichia pastoris X-33; monomer
T1 sequence (Q18014 26-382): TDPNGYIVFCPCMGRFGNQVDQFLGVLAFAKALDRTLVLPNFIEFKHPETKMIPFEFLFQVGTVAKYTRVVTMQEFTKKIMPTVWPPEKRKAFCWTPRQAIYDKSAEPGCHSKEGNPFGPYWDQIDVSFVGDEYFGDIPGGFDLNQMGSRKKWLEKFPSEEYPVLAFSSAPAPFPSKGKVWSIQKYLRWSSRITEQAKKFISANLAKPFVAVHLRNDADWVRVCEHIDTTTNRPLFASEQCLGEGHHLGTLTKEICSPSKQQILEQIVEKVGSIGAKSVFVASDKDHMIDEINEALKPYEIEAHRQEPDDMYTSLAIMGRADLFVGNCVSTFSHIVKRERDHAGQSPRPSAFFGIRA
Source text: (§1) thermal shift assay (ANS fluorescence) on CePOFUT1

CePOFUT1 [2] = target: T1, CePOFUT1; test: isothermal titration calorimetry; conditions: read-out: K d (μM)GDP-fucose
Source text: (§2) isothermal titration calorimetry on CePOFUT1

CePOFUT1 [3] = target: T2, CePOFUT1 (Caenorhabditis elegans, UniProt Q18014, D309N); test: thermal shift assay (ANS fluorescence); conditions: read-out: ΔT m (°C)1 mM GDP
T2 construct: gene pfut-1; codon-optimized synthetic gene in pPICZalphaA with KEX2 cleavage signal, secreted from Pichia pastoris X-33; monomer
T2 sequence (Q18014 26-382 D309N): T1 sequence (Q18014 26-382) with D284N
Source text: as §1

CePOFUT1 [4] = target: T3, CePOFUT1 (Caenorhabditis elegans, UniProt Q18014, D242A); test: isothermal titration calorimetry
T3 construct: gene pfut-1; codon-optimized synthetic gene in pPICZalphaA with KEX2 cleavage signal, secreted from Pichia pastoris X-33; monomer
T3 sequence (Q18014 26-382 D242A): T1 sequence (Q18014 26-382) with D217A
Source text: as §2

CePOFUT1 [5] = target: T4, CePOFUT1 (Caenorhabditis elegans, UniProt Q18014, D244A); test: isothermal titration calorimetry
T4 construct: gene pfut-1; codon-optimized synthetic gene in pPICZalphaA with KEX2 cleavage signal, secreted from Pichia pastoris X-33; monomer
T4 sequence (Q18014 26-382 D244A): T1 sequence (Q18014 26-382) with D219A
Source text: as §2

CePOFUT1 [6] = target: T5, CePOFUT1 (Caenorhabditis elegans, UniProt Q18014, F199A); test: isothermal titration calorimetry
T5 construct: gene pfut-1; codon-optimized synthetic gene in pPICZalphaA with KEX2 cleavage signal, secreted from Pichia pastoris X-33; monomer
T5 sequence (Q18014 26-382 F199A): T1 sequence (Q18014 26-382) with F174A
Source text: as §2

CePOFUT1 [7] = target: T6, CePOFUT1 (Caenorhabditis elegans, UniProt Q18014, F261A); test: isothermal titration calorimetry
T6 construct: gene pfut-1; codon-optimized synthetic gene in pPICZalphaA with KEX2 cleavage signal, secreted from Pichia pastoris X-33; monomer
T6 sequence (Q18014 26-382 F261A): T1 sequence (Q18014 26-382) with F236A
Source text: as §2

CePOFUT1 [8] = target: T7, CePOFUT1 (Caenorhabditis elegans, UniProt Q18014, F357A); test: isothermal titration calorimetry
T7 construct: gene pfut-1; codon-optimized synthetic gene in pPICZalphaA with KEX2 cleavage signal, secreted from Pichia pastoris X-33; monomer
T7 sequence (Q18014 26-382 F357A): T1 sequence (Q18014 26-382) with F332A
Source text: as §2

CePOFUT1 [9] = target: T8, CePOFUT1 (Caenorhabditis elegans, UniProt Q18014, N43A); test: isothermal titration calorimetry
T8 construct: gene pfut-1; codon-optimized synthetic gene in pPICZalphaA with KEX2 cleavage signal, secreted from Pichia pastoris X-33; monomer
T8 sequence (Q18014 26-382 N43A): T1 sequence (Q18014 26-382) with N18A
Source text: as §2

CePOFUT1 [10] = target: T9, CePOFUT1 (Caenorhabditis elegans, UniProt Q18014, R240K); test: isothermal titration calorimetry
T9 construct: gene pfut-1; codon-optimized synthetic gene in pPICZalphaA with KEX2 cleavage signal, secreted from Pichia pastoris X-33; monomer
T9 sequence (Q18014 26-382 R240K): T1 sequence (Q18014 26-382) with R215K
Source text: as §2

CePOFUT1 [11] = target: T10, CePOFUT1 (Caenorhabditis elegans, UniProt Q18014, R40A); test: isothermal titration calorimetry
T10 construct: gene pfut-1; codon-optimized synthetic gene in pPICZalphaA with KEX2 cleavage signal, secreted from Pichia pastoris X-33; monomer
T10 sequence (Q18014 26-382 R40A): T1 sequence (Q18014 26-382) with R15A
Source text: as §2

CePOFUT1 [12] = target: T11, CePOFUT1 (Caenorhabditis elegans, UniProt Q18014, W245A); test: isothermal titration calorimetry
T11 construct: gene pfut-1; codon-optimized synthetic gene in pPICZalphaA with KEX2 cleavage signal, secreted from Pichia pastoris X-33; monomer
T11 sequence (Q18014 26-382 W245A): T1 sequence (Q18014 26-382) with W220A
Source text: as §2

ΔTm at 1000 µM (CePOFUT1 [1]; read-out: ΔT m (°C)1 mM GDP-fucose) [°C] | Kd (CePOFUT1 [2]) [µM] | ΔTm at 1000 µM (CePOFUT1 [1]; read-out: ΔT m (°C)1 mM GDP) [°C] | ΔTm at 1000 µM (CePOFUT1 [3]) [°C] | Kd (CePOFUT1 [4]) [nM] | Kd (CePOFUT1 [5]) [nM] | Kd (CePOFUT1 [6]) [nM] | Kd (CePOFUT1 [7]) [nM] | Kd (CePOFUT1 [8]) [nM] | Kd (CePOFUT1 [9]) [nM] | Kd (CePOFUT1 [10]) [nM] | Kd (CePOFUT1 [11]) [nM] | Kd (CePOFUT1 [12]) [nM] | SMILES
2.19 | 0.23 ± 0.04 |  |  |  |  |  |  |  |  |  |  |  | C[C@@H]1O[C@H](OP(=O)(O)OP(=O)(O)OC[C@H]2O[C@@H](n3cnc4c(=O)[nH]c(N)nc43)[C@H](O)[C@@H]2O)[C@@H](O)[C@H](O)[C@@H]1O [GDP-fucose]
 |  | 4.21 | 5.01 | 90 ± 20 | 100 ± 10 | 180 ± 30 | 120 ± 70 | 26900 ± 5000 | 300 ± 90 | 61200 ± 10500 | 3100 ± 530 | 1600 ± 400 | Nc1nc2c(ncn2[C@@H]2O[C@H](COP(=O)(O)OP(=O)(O)O)[C@@H](O)[C@H]2O)c(=O)[nH]1 [GDP]
